The source of these data is patent publication US8158628B2, “Sulfonylated 1,2,3,4-tetrahydropyrrolo[1,2-a]pyrazine compounds and their use as pharmaceuticals” (Gruenenthal GmbH, priority 2009, dated 2012).

One assay addresses T1, human B1R (Homo sapiens, UniProt P46663).
T1 construct: expressed in transfected cells; host or cells: CHO K1 cells (Chinese hamster ovary), stably transfected
T1 sequence (P46663 1-353): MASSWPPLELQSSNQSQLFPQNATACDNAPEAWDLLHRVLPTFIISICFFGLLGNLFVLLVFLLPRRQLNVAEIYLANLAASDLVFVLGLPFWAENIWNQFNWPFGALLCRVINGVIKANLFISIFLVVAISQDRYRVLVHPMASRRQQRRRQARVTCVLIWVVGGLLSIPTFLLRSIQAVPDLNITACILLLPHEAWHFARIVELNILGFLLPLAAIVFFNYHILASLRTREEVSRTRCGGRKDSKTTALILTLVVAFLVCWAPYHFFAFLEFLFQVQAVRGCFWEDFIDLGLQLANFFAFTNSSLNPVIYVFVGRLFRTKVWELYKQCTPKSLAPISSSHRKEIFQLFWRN
The assay is described as follows: FLIPR Ca2+ functional assay, B1R antagonism, human B1R in CHO K1 cells. In kind it is cell-based. The conditions noted are these: test substance 10 μM; hB1R CHO K1 cells; agonist Lys-Des-Arg9 bradykinin at EC80; % of maximum achievable inhibition. The method, boiled down: (§1)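 IC50 values come from varied compound concentrations applied 10-20 min before an EC80 agonist challenge, with Des-Arg9 bradykinin for rat and Lys-Des-Arg9 bradykinin for human receptor. Ca2+ influx in Fluo-4-loaded CHO K1 transfectants was measured by FLIPR peak fluorescence. Data are % inhibition vs maximum, n=2-3, N>=2.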

For another assay, the target named is T2, B1R of the rat (Rattus norvegicus, UniProt P97583).
T2 construct: expressed in transfected cells; host or cells: CHO K1 cells (Chinese hamster ovary), stably transfected
T2 sequence (P97583 1-337): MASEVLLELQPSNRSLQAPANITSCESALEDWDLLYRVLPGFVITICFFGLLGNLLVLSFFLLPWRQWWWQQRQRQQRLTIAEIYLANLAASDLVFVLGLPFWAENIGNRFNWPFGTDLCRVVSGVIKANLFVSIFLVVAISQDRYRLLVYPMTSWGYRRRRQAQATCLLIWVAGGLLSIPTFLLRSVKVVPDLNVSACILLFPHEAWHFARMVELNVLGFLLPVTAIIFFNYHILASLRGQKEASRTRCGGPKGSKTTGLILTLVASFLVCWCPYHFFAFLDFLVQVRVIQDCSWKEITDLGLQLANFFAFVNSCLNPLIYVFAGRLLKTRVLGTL
The assay is described as follows: FLIPR Ca2+ functional assay, B1R antagonism, rat B1R in CHO K1 cells. In kind it is cell-based. The settings on record: test substance 10 μM; rB1R CHO K1 cells; agonist Des-Arg9 bradykinin at EC80; % of maximum achievable inhibition. The method, boiled down: as §1

As a reminder, the inhibition is the change of the read-out against control, counted positive when it falls. Consider `Cc1ccc(S(=O)(=O)N2CCn3cccc3C2CC(=O)NC2CCc3cc(CNCc4ccccc4)ccc3C2)cc1` (stereo not drawn) [Example 93, N-[6-[(Benzylamino)-methyl]-1,2,3,4-tetrahydro-naphthalen-2-yl]-2-[2-(p-tolylsulfonyl)-1,2,3,4-tetrahydro-pyrrolo[1,2-a]pyrazin-1-yl]-acetamide], for which the inhibition at 10 µM amounted to 99.9% on human B1R and 96.8% on B1R of the rat.

For the compound `COc1ccc2cc(S(=O)(=O)N3CCn4cccc4C3CC(=O)NC3CCc4cc(CN5CCCC5)ccc4C3)ccc2c1` (stereo not drawn) [Example 94, 2-[2-[(6-Methoxy-naphthalen-2-yl)sulfonyl]-1,2,3,4-tetrahydro-pyrrolo[1,2-a]pyrazin-1-yl]-N-[6-(pyrrolidin-1-yl-methyl)-1,2,3,4-tetrahydro-naphthalen-2-yl]-acetamide], the inhibition at 10 µM on human B1R came out at 99.9%; at B1R of the rat, 101%.

In the case of `COc1ccc2cc(S(=O)(=O)N3CCn4cccc4C3CC(=O)NC3CCCc4cc(CN5C6CCCC5CC6)ccc43)ccc2c1` (stereo not drawn) [Example 95, N-[6-(8-Azabicyclo[3.2.1]octan-8-yl-methyl)-1,2,3,4-tetrahydro-naphthalen-1-yl]-2-[2-[(6-methoxy-naphthalen-2-yl)sulfonyl]-1,2,3,4-tetrahydro-pyrrolo[1,2-a]pyrazin-1-yl]-acetamide], the inhibition at 10 µM on human B1R is 99.7%; at B1R of the rat it was 99.8%.

With `COc1ccc2cc(S(=O)(=O)N3CCn4cccc4C3CC(=O)NC3CCc4cc(CN(C)C)ccc4C3)ccc2c1` (stereo not drawn) [Example 96, N-[6-(Dimethylaminomethyl)-1,2,3,4-tetrahydro-naphthalen-2-yl]-2-[2-[(6-methoxy-naphthalen-2-yl)sulfonyl]-1,2,3,4-tetrahydro-pyrrolo[1,2-a]pyrazin-1-yl]-acetamide], the inhibition at 10 µM at human B1R was found to be 99.9%; at B1R of the rat it was 102%.

Consider `COc1ccc2cc(S(=O)(=O)N3CCn4cccc4C3CC(=O)NC3CCc4cc(CN(C)C(C)(C)C)ccc4C3)ccc2c1` (stereo not drawn) [Example 97, N-[6-[(tert-Butyl-methyl-amino)-methyl]-1,2,3,4-tetrahydro-naphthalen-2-yl]-2-[2-[(6-methoxy-naphthalen-2-yl)sulfonyl]-1,2,3,4-tetrahydro-pyrrolo[1,2-a]pyrazin-1-yl]-acetamide], for which the inhibition at 10 µM on human B1R is 99.8%; on B1R of the rat, 102%.

As for `COc1ccc2cc(S(=O)(=O)N3CCn4cccc4C3CC(=O)NC3CCCc4cc(CN5CCCC5)ccc43)ccc2c1` (stereo not drawn) [Example 98, 2-[2-[(6-Methoxy-naphthalen-2-yl)sulfonyl]-1,2,3,4-tetrahydro-pyrrolo[1,2-a]pyrazin-1-yl]-N-[6-(pyrrolidin-1-yl-methyl)-1,2,3,4-tetrahydro-naphthalen-1-yl]-acetamide], the inhibition at 10 µM on human B1R came out at 99.9%; at B1R of the rat, 99.7%.

`COc1ccc2cc(S(=O)(=O)N3CCn4cccc4C3CC(=O)NC3CCc4cc(CN5CCN(C)CC5)ccc4C3)ccc2c1` (stereo not drawn) [Example 99, 2-[2-[(6-Methoxy-naphthalen-2-yl)sulfonyl]-1,2,3,4-tetrahydro-pyrrolo[1,2-a]pyrazin-1-yl]-N-[6-[(4-methyl-piperazin-1-yl)-methyl]-1,2,3,4-tetrahydro-naphthalen-2-yl]-acetamide]: the inhibition at 10 µM was found to be 99.8% on human B1R and 101% at B1R of the rat.

Turning to `COc1ccc2cc(S(=O)(=O)N3CCn4cccc4C3CC(=O)NC3CCCc4cc(CNCc5ccccc5)ccc43)ccc2c1` (stereo not drawn) [Example 100, N-[6-[(Benzylamino)-methyl]-1,2,3,4-tetrahydro-naphthalen-1-yl]-2-[2-[(6-methoxy-naphthalen-2-yl)sulfonyl]-1,2,3,4-tetrahydro-pyrrolo[1,2-a]pyrazin-1-yl]-acetamide], the inhibition at 10 µM on human B1R stood at 99.8%; at B1R of the rat, 103%.

In the case of `COc1ccc2cc(S(=O)(=O)N3CCn4cccc4C3CC(=O)NC3CCc4cc(CNCc5ccccc5)ccc4C3)ccc2c1` (stereo not drawn) [Example 101, N-[6-[(Benzylamino)-methyl]-1,2,3,4-tetrahydro-naphthalen-2-yl]-2-[2-[(6-methoxy-naphthalen-2-yl)sulfonyl]-1,2,3,4-tetrahydro-pyrrolo[1,2-a]pyrazin-1-yl]-acetamide], the inhibition at 10 µM at human B1R was 99.9%; on B1R of the rat it was 103%.

With `Cc1ccc(S(=O)(=O)N2CCn3cccc3C2CC(=O)NC2CCCc3cc(CN(C)C)ccc32)cc1Cl` (stereo not drawn) [Example 102, 2-[2-[(3-Chloro-4-methyl-phenyl)sulfonyl]-1,2,3,4-tetrahydro-pyrrolo[1,2-a]pyrazin-1-yl]-N-[6-(dimethylaminomethyl)-1,2,3,4-tetrahydro-naphthalen-1-yl]-acetamide], the inhibition at 10 µM at human B1R was determined as 99.9%; at B1R of the rat it was 101%.

In the case of `COc1ccc2cc(S(=O)(=O)N3CCn4cccc4C3CC(=O)NC3CCc4cc(CN5C6CCCC5CC6)ccc4C3)ccc2c1` (stereo not drawn) [Example 103, N-[6-(8-Azabicyclo[3.2.1]octan-8-yl-methyl)-1,2,3,4-tetrahydro-naphthalen-2-yl]-2-[2-[(6-methoxy-naphthalen-2-yl)sulfonyl]-1,2,3,4-tetrahydro-pyrrolo[1,2-a]pyrazin-1-yl]-acetamide], the inhibition at 10 µM worked out at 100% on human B1R and 102% at B1R of the rat.

As for `COc1ccc2cc(S(=O)(=O)N3CCn4cccc4C3CC(=O)NC3CCCc4cc(CN(C)C(C)(C)C)ccc43)ccc2c1` (stereo not drawn) [Example 104, N-[6-[(tert-Butyl-methyl-amino)-methyl]-1,2,3,4-tetrahydro-naphthalen-1-yl]-2-[2-[(6-methoxy-naphthalen-2-yl)sulfonyl]-1,2,3,4-tetrahydro-pyrrolo[1,2-a]pyrazin-1-yl]-acetamide], the results for the inhibition at 10 µM at human B1R and at B1R of the rat were 99.9% and 103%, respectively.

As for `COc1ccc2cc(S(=O)(=O)N3CCn4cccc4C3CC(=O)NC3CCc4cc(CN5CCCc6ccccc65)ccc4C3)ccc2c1` (stereo not drawn) [Example 105, 2-[2-[(6-Methoxy-naphthalen-2-yl)sulfonyl]-1,2,3,4-tetrahydro-pyrrolo[1,2-a]pyrazin-1-yl]-N-[6-(1,2,3,4-tetrahydro-quinolin-1-yl-methyl)-1,2,3,4-tetrahydro-naphthalen-2-yl]-acetamide], the inhibition at 10 µM was determined as 99.8% at human B1R and 103% on B1R of the rat.

As to `COc1ccc2cc(S(=O)(=O)N3CCn4cccc4C3CC(=O)NC3CCCc4cc(CN(C)C)ccc43)ccc2c1` (stereo not drawn) [Example 106, N-[6-(Dimethylaminomethyl)-1,2,3,4-tetrahydro-naphthalen-1-yl]-2-[2-[(6-methoxy-naphthalen-2-yl)sulfonyl]-1,2,3,4-tetrahydro-pyrrolo[1,2-a]pyrazin-1-yl]-acetamide], the values for the inhibition at 10 µM at human B1R and on B1R of the rat were 100% and 101%, respectively.

Regarding `Cc1ccc(S(=O)(=O)N2CCn3cccc3C2CC(=O)NC2CCCc3cc(CN(C)C)ccc32)cc1` (stereo not drawn) [Example 107, N-[6-(Dimethylaminomethyl)-1,2,3,4-tetrahydro-naphthalen-1-yl]-2-[2-(p-tolylsulfonyl)-1,2,3,4-tetrahydro-pyrrolo[1,2-a]pyrazin-1-yl]-acetamide], the inhibition at 10 µM amounted to 99.3% at human B1R and 98.4% at B1R of the rat.

Consider `Cc1ccc(S(=O)(=O)N2CCn3cccc3C2CC(=O)NC2CCCc3cc(CN4C5CCCC4CC5)ccc32)cc1` (stereo not drawn) [Example 108, N-[6-(8-Azabicyclo[3.2.1]octan-8-yl-methyl)-1,2,3,4-tetrahydro-naphthalen-1-yl]-2-[2-(p-tolylsulfonyl)-1,2,3,4-tetrahydro-pyrrolo[1,2-a]pyrazin-1-yl]-acetamide], for which the inhibition at 10 µM came to 99.9% at human B1R and 101% on B1R of the rat.

Turning to `O=C(CC1c2cccn2CCN1S(=O)(=O)c1cccc(C(F)(F)F)c1)NC1CCCc2cc(CN3C4CCCC3CC4)ccc21` (stereo not drawn) [Example 109, N-[6-(8-Azabicyclo[3.2.1]octan-8-yl-methyl)-1,2,3,4-tetrahydro-naphthalen-1-yl]-2-[2-[[3-(trifluoromethyl)phenyl]sulfonyl]-1,2,3,4-tetrahydro-pyrrolo[1,2-a]pyrazin-1-yl]-acetamide], the inhibition at 10 µM on human B1R and on B1R of the rat was 99.8% in each case.

With `Cc1ccc(S(=O)(=O)N2CCn3cccc3C2CC(=O)NC2CCCc3cc(CN4C5CCCC4CC5)ccc32)cc1Cl` (stereo not drawn) [Example 110, N-[6-(8-Azabicyclo[3.2.1]octan-8-yl-methyl)-1,2,3,4-tetrahydro-naphthalen-1-yl]-2-[2-[(3-chloro-4-methyl-phenyl)sulfonyl]-1,2,3,4-tetrahydro-pyrrolo[1,2-a]pyrazin-1-yl]-acetamide], the inhibition at 10 µM on human B1R stood at 99.9%; on B1R of the rat, 98.8%.
